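Compound exposure: 48 hours, 5 concentrations, 96-well plates. GI50 marks 50% less growth. TGI: total growth inhibition.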
Assays:
Experiment in all cases: NCI anticancer screen, dose series, 48 h
OVCAR-4 ovarian = test system: OVCAR-4 ovarian
SK-MEL-2 melanoma = test system: SK-MEL-2 melanoma
MDA-MB-231 breast = test system: MDA-MB-231 breast
RPMI-8226 leukemia = test system: RPMI-8226 leukemia
UO-31 renal = test system: UO-31 renal
HOP-92 NSCLC = test system: HOP-92 NSCLC
A549 NSCLC = test system: A549 NSCLC
HOP-62 NSCLC = test system: HOP-62 NSCLC
U251 CNS = test system: U251 CNS
IGROV1 ovarian = test system: IGROV1 ovarian

Structure (SMILES)	TGI (OVCAR-4 ovarian)	TGI (SK-MEL-2 melanoma)	TGI (MDA-MB-231 breast)	TGI (RPMI-8226 leukemia)	TGI (UO-31 renal)	TGI (HOP-92 NSCLC)	TGI (A549 NSCLC)	TGI (HOP-62 NSCLC)	TGI (U251 CNS)	TGI (IGROV1 ovarian)	GI50 (OVCAR-4 ovarian)	GI50 (SK-MEL-2 melanoma)	GI50 (MDA-MB-231 breast)	GI50 (RPMI-8226 leukemia)	GI50 (UO-31 renal)	GI50 (HOP-92 NSCLC)	GI50 (A549 NSCLC)	GI50 (HOP-62 NSCLC)	GI50 (U251 CNS)	GI50 (IGROV1 ovarian)
O=c1[nH]nc(-c2ccccc2)n1/N=C/c1cccc([N+](=O)[O-])c1	> 100 µM	> 100 µM	> 100 µM	> 100 µM	> 100 µM	> 100 µM	> 100 µM	> 100 µM	> 100 µM	> 100 µM	–	–	–	–	–	–	–	–	–	–
C[C@@H](C[C@H]1OC(C)(C)O[C@@H]1C(C)(C)O)[C@H]1CC=C2[C@]3(C)[C@H](O)C[C@H]4C(C)(C)[C@H](O)CC[C@]4(C)[C@H]3CC[C@]21C	26.2 µM	24.7 µM	18.7 µM	12.8 µM	23.7 µM	13.6 µM	15.2 µM	20.7 µM	15 µM	21.1 µM	–	–	–	–	–	–	–	–	–	–
COC(=O)C1Cc2c(OC)ccc(OC)c2C(O)C1C(=O)OC (stereo not given)	> 100 µM	> 100 µM	> 100 µM	> 100 µM	> 100 µM	> 100 µM	> 100 µM	> 100 µM	> 100 µM	> 100 µM	–	–	–	–	–	–	–	–	–	–
Nc1[nH]c(=O)nc2snnc12	> 100 µM	14.4 µM	> 100 µM	> 100 µM	> 31.2 µM	> 100 µM	> 100 µM	> 100 µM	> 100 µM	> 100 µM	–	–	–	–	–	–	–	–	–	–
COc1ccc(-c2c(-c3ccccc3)c(C)c3ccccn23)cc1	> 100 µM	> 100 µM	> 100 µM	> 100 µM	> 100 µM	> 100 µM	> 100 µM	> 100 µM	> 100 µM	> 100 µM	–	–	–	–	–	–	–	–	–	–
CC12CC(=O)Nc3ccccc3N1C(c1ccccc1)=NO2 (stereo not given)	> 100 µM	> 100 µM	> 100 µM	> 100 µM	> 100 µM	> 100 µM	> 100 µM	> 100 µM	> 100 µM	> 100 µM	–	–	–	–	–	–	–	–	–	–
COc1c2c(nc3ccccc13)-c1cc(C(CC(=O)OC(C)(C)C)C(=O)OC(C)C)c(CO)c(=O)n1C2 (stereo not given)	> 100 µM	> 100 µM	> 100 µM	> 100 µM	> 89.5 µM	> 100 µM	> 100 µM	> 100 µM	> 100 µM	> 100 µM	–	–	–	–	–	–	–	–	–	–
O=c1nc2ccc([N+](=O)[O-])cc2[n+]([O-])[nH]1	> 100 µM	> 100 µM	> 100 µM	> 100 µM	> 100 µM	> 100 µM	> 100 µM	> 100 µM	> 100 µM	> 100 µM	–	–	–	–	–	–	–	–	–	–
Cc1cc(N/N=C/c2nc(-c3ccc(Cl)cc3)oc2C)c2cc(Br)ccc2n1	3.69 µM	32.2 µM	12 µM	4.81 µM	26.8 µM	16.4 µM	3.71 µM	3.94 µM	3.29 µM	16.7 µM	1.87 µM	17.5 µM	3.43 µM	1.95 µM	13.9 µM	3.24 µM	1.77 µM	1.87 µM	1.73 µM	3.14 µM
COc1cc(C2c3cc4c(cc3OC(NNS(=O)(=O)c3ccc(C)cc3)C2C)OCO4)cc(OC)c1OC (stereo not given)	48.4 µM	36.9 µM	> 64.1 µM	18.4 µM	> 100 µM	50.1 µM	34.4 µM	4.68 µM	13.4 µM	> 67.3 µM	–	–	–	–	–	–	–	–	–	–
CC(=O)C(C)C(=O)N1C(=O)N(C)C2(C)N(C)C(=O)NC12C (stereo not given)	> 100 µM	> 100 µM	> 100 µM	> 100 µM	> 100 µM	> 100 µM	> 100 µM	> 100 µM	> 100 µM	> 100 µM	–	–	–	–	–	–	–	–	–	–
Cc1cn(-c2cccc(NC(=O)c3ccc(C)c(Nc4nccc(-c5cccnc5)n4)c3)c2)cn1	3.11 µM	7.83 µM	3.46 µM	5.41 µM	3.05 µM	2.51 µM	3.34 µM	3.77 µM	3.39 µM	3.92 µM	1.71 µM	2.58 µM	1.63 µM	1.87 µM	1.5 µM	1.18 µM	1.55 µM	2 µM	1.69 µM	2.08 µM
CCC(C)C(N)C(=O)N/N=C\c1c2c(nc3ccccc13)-c1cc3c(c(=O)n1C2)COC(=O)[C@]3(O)CC (stereo not given in full)	52.6 µM	6.59 µM	> 82.2 µM	11.4 µM	1.4 µM	1.8 µM	14.2 µM	1.15 µM	0.669 µM	> 47 µM	–	–	–	–	–	–	–	–	–	–
O=C(Cn1cc(Br)c(=O)[nH]c1=O)c1ccc(-c2ccccc2)cc1	> 100 µM	> 17.3 µM	> 52 µM	> 100 µM	> 100 µM	82.5 µM	> 100 µM	39.2 µM	62.5 µM	> 33.1 µM	–	–	–	–	–	–	–	–	–	–
Cn1c(=Nc2ccc(Cl)cc2)sc2ccccc21	> 100 µM	> 100 µM	> 100 µM	> 100 µM	> 100 µM	85.7 µM	> 100 µM	> 100 µM	> 100 µM	> 100 µM	–	–	–	–	–	–	–	–	–	–
CC1CN=C(Nc2cccc(F)c2)S1 (stereo not given)	> 100 µM	> 100 µM	25.2 µM	> 100 µM	> 100 µM	> 100 µM	> 100 µM	> 100 µM	> 100 µM	> 100 µM	–	–	–	–	–	–	–	–	–	–
Cc1ccc(-c2c(-c3ccccc3)[nH]c(C)c2C(=O)ONC(=O)c2ccccc2)cc1	9.48 µM	16.2 µM	12.8 µM	29.5 µM	3.86 µM	4.09 µM	7.65 µM	4.66 µM	4.07 µM	3.15 µM	–	–	–	–	–	–	–	–	–	–
COc1cc(/C=C2\C[C@H]3[C@@H]4CCC5=CC(=O)CC[C@]5(C)[C@H]4CC[C@]3(C)C2=O)cc(OC)c1OC	> 59.7 µM	> 59.8 µM	> 100 µM	9.7 µM	> 100 µM	> 100 µM	> 100 µM	> 66.9 µM	> 100 µM	> 100 µM	–	–	–	–	–	–	–	–	–	–

Structure (SMILES)	TGI (OVCAR-4 ovarian)	TGI (SK-MEL-2 melanoma)	TGI (MDA-MB-231 breast)	TGI (RPMI-8226 leukemia)	TGI (UO-31 renal)	TGI (HOP-92 NSCLC)	TGI (A549 NSCLC)	TGI (HOP-62 NSCLC)	TGI (U251 CNS)	TGI (IGROV1 ovarian)	GI50 (OVCAR-4 ovarian)	GI50 (SK-MEL-2 melanoma)	GI50 (MDA-MB-231 breast)	GI50 (RPMI-8226 leukemia)	GI50 (UO-31 renal)	GI50 (HOP-92 NSCLC)	GI50 (A549 NSCLC)	GI50 (HOP-62 NSCLC)	GI50 (U251 CNS)	GI50 (IGROV1 ovarian)
N#CC1=C(N)N(/N=C/c2ccccc2)C(c2ccccc2)C1(C#N)C#N (stereo not given)	28.5 µM	34.9 µM	31.4 µM	18.5 µM	29.7 µM	6.54 µM	43.1 µM	33.1 µM	32.6 µM	29.1 µM	–	–	–	–	–	–	–	–	–	–
c1ccc2cc3c(NC4=NCCO4)cccc3cc2c1	> 100 µM	> 100 µM	> 100 µM	> 100 µM	> 100 µM	74 µM	> 100 µM	> 100 µM	> 100 µM	> 100 µM	–	–	–	–	–	–	–	–	–	–
C[C@H]1C2Cc3cc(O)ccc3[C@@]1(C)CCN2CCc1ccc(N)cc1	> 100 µM	> 100 µM	> 100 µM	> 100 µM	> 100 µM	73.7 µM	> 100 µM	33.4 µM	33.9 µM	66.3 µM	–	–	–	–	–	–	–	–	–	–
COc1ccc2oc(S(=O)(=O)N3CC(CCl)c4ccc(N)cc43)cc2c1 (stereo not given)	> 100 µM	> 100 µM	> 24.9 µM	> 100 µM	> 100 µM	> 64.7 µM	> 100 µM	> 100 µM	> 100 µM	> 34.1 µM	–	–	–	–	–	–	–	–	–	–
N#[N+]c1c([O-])c2ccccc2c2ccccc12	> 100 µM	93.4 µM	> 100 µM	> 100 µM	> 100 µM	> 100 µM	> 100 µM	> 100 µM	> 100 µM	> 100 µM	–	–	–	–	–	–	–	–	–	–
COC(=O)c1c(CC(Cc2ccc3c(c2)CCCC3)C(=O)O)ccc2c1CCCC2 (stereo not given)	> 100 µM	39.5 µM	> 100 µM	73.3 µM	62.3 µM	50.9 µM	> 100 µM	51.7 µM	> 100 µM	> 100 µM	–	–	–	–	–	–	–	–	–	–
Cc1ccc2nc3n[nH]c(N)c3nc2c1	> 100 µM	> 100 µM	> 100 µM	> 100 µM	> 100 µM	> 100 µM	> 100 µM	> 100 µM	> 100 µM	> 100 µM	–	–	–	–	–	–	–	–	–	–
Nc1ccc(-c2nc3ccc(F)cc3s2)cc1Cl	> 100 µM	> 100 µM	99.5 µM	> 100 µM	> 100 µM	> 100 µM	> 100 µM	> 100 µM	> 100 µM	> 100 µM	–	–	–	–	–	–	–	–	–	–
C=C1C[C@@H](O)[C@@H](Br)C(C)(C)[C@@]12C=CC(=O)CC2	> 100 µM	> 100 µM	> 100 µM	> 100 µM	> 100 µM	> 100 µM	> 100 µM	> 100 µM	> 100 µM	> 48.3 µM	–	–	–	–	–	–	–	–	–	–
COc1ccc(-c2c(-c3ccc(OC)cc3)n3c(=O)n(C)c(=O)n23)cc1	> 100 µM	> 100 µM	> 100 µM	> 100 µM	> 100 µM	76 µM	> 100 µM	> 100 µM	> 100 µM	> 100 µM	–	–	–	–	–	–	–	–	–	–
Cc1ccc(S(=O)C[C@](NC(=O)OCc2ccccc2)(Sc2ccccc2)C(F)F)cc1 (stereo not given in full)	41.4 µM	71.6 µM	52.4 µM	45 µM	22.3 µM	42.9 µM	> 100 µM	86.9 µM	35.5 µM	22.7 µM	–	–	–	–	–	–	–	–	–	–
O=C1/C(=C\c2ccc(Br)cc2)CCCc2ccccc21	26.3 µM	39.2 µM	42 µM	48.8 µM	27.8 µM	39.8 µM	> 100 µM	> 100 µM	31.2 µM	34.4 µM	–	–	–	–	–	–	–	–	–	–
Nc1nccc(NCC2(CO)CC(OCc3ccccc3)C2)n1 (stereo not given)	> 100 µM	> 100 µM	> 100 µM	> 100 µM	> 100 µM	> 100 µM	> 100 µM	> 100 µM	> 100 µM	> 100 µM	–	–	–	–	–	–	–	–	–	–
COc1ccc(/C=C2\C[C@H]3[C@@H]4CCC5=C/C(=N/O)CC[C@]5(C)[C@H]4CC[C@]3(C)\C2=N\O)cc1	> 100 µM	72.4 µM	> 100 µM	93.5 µM	57.5 µM	> 100 µM	> 100 µM	> 100 µM	> 100 µM	> 100 µM	–	–	–	–	–	–	–	–	–	–
N=c1oc2ccccc2cc1-c1nc2ccccc2[nH]1	> 100 µM	> 100 µM	57.6 µM	> 100 µM	24.8 µM	35.5 µM	> 100 µM	> 100 µM	> 100 µM	> 100 µM	–	–	–	–	–	–	–	–	–	–
O=[N+]([O-])C(/C(Cl)=C(\Cl)Br)=C(/Cl)SCc1ccccc1	11.4 µM	18.1 µM	7.96 µM	5.42 µM	5.73 µM	5.34 µM	33.5 µM	37.5 µM	18.5 µM	13.1 µM	–	–	–	–	–	–	–	–	–	–
CCC(=O)N/S(=N/S(=O)(=O)c1ccccc1)C(Cl)(Cl)Cl (stereo not given)	> 100 µM	> 100 µM	> 100 µM	> 100 µM	> 100 µM	> 100 µM	> 100 µM	> 100 µM	> 100 µM	> 100 µM	–	–	–	–	–	–	–	–	–	–
